Source: US20060147936A1, “Use of a gene mutation in the human gnas gene for predicting risks of diseases, courses of the disease and for predicting the response to disease therapies” (priority 2003, published 2006)

Key:
human fat cells = assay: isoprenaline-stimulated lipolysis (glycerol release) in human fat cells ex vivo; format: cell-based; details: compared with other genotypes
Excerpt: For this purpose, human fat cells ex vivo were stimulated with isoprenaline and lipolysis quantified on the basis of glycerol release (Hauner H et al. Effects of the G protein beta3 subunit 825T allele on adipogenesis and lipolysis in cultured human preadipocytes and adipocytes. Horm Metab Res. 2002;34(9):475-80). […] This agrees with the observation of increased expression of Gαs protein in this genotype.
In fat cells from humans with the GG genotype, there is increased lipolysis, measured as the release of glycerol. […] This also agrees with the observation that persons with the GG genotype on a low calorie diet lose more weight than persons with the AA/AG genotype.

[1] = metformin therapy for 12 months in women with PCOS: HOMA-IR index and BMI; format: in vivo, human; details: metformin 12 months
Method: Polycystic ovarian syndrome (PCOS) is a frequent endocrine disease, characterized by chronic anovulation and hyperandrogenism. About 5% of all premenopausal women are affected by this. […] Treatment of PCOS patients with metformin improves fertility and androgen levels, reduces insulin resistance and facilitates weight reduction. For this purpose, women with the PCOS syndrome were treated with metformin for 12 months. Changes in the Body Mass Index (BMI) and insulin resistance according to the HOMA-IR method (homeostasis model assessment for insulin resistance) were investigated, together with the GNAS genotypes of the T393C polymorphism. FIG. 22A shoes the influence of therapy with an oral antidiabetic(metformin) on insulin resistance(A) and Body Mass Index (BMI; B) in women with polycystic ovaries. As already mentioned, therapy was carried out with metformin for 12 months. The change in the HOMA-IR index is given as a measure of the insulin resistance. It is evident that the most marked improvement of the HOMA-IR index is in individuals with the CC genotype(2.9), in contrast to 2.2 with the TC genotype and only 0.9 with the TT genotype. […] The changes in the BMI (a measure of body fat) behave similarly. […] This includes not only metformin, but also the so-called glitazones, tolbutamide, sulfonylureas and their derivatives, glinides and arcabose.

[2] = placebo-controlled, double blind study of sibutramine in obese patients: loss of weight after one year; format: in vivo, human; details: 15 mg/day for one year
Method: (§1) In the context of a placebo-controlled, double blind study, obese patients were given 15 mg sibutramine/day for one year. Sibutramine is a centrally active re-uptake inhibitor of noradrenaline and serotonin, both of which act through G protein-coupled receptors. Sibutramine (trade-name: Reductil, Meridia) enhances the feeling of satiety and makes it easier to lose weight in the context of structured measures to reduce weight (increase in physical activity, reduction in calorie intake). The outcome parameter of the study was the weight loss after one year.
The placebo or sibutramine (15 mg/day) were administered for one year. The loss of weight after one year (%) is illustrated, in dependence on the GNAS T393C genotype.
In addition, the study population was genotyped with respect to the GNAS G(-1211)A polymorphism (FIG. 19B). […] Placebo or sibutramine (15 mg/day) was administered for one year. The loss of weight (%) after one year is illustrated in dependence on the GNAS G(1211)A genotype. In the placebo group, patients with GNAS (-1211) GG genotype clearly could lose weight better(7.3%) than those with the AA- and AG genotype (1.8 and 3.1%, respectively). […] Thus therapy with sibutramine is predominantly indicated for patients with AG/AA genotype, whereas patients with CC genotype can also lose weight well under placebo. The time courses of the loss of weight for each genotype of the 393CT393C polymorphism (sibutramine versus placebo) are shown in FIGS. 20A, 20B and 20C. FIGS. 20 A, B and C illustrate the individual time courses for the changes in weight with placebo or sibutramine for the GNAS 393 CC genotype (A), the TC genotype (B) and the TT genotype (C). It is evident that only the TC and TT genotypes benefit from therapy with 15 mg sibutramine daily, whereas CC genotypes can lose weight without drug.

[3] = cardiovascular side-effects (heart rate, blood pressure) under therapy with sibutramine versus placebo; format: in vivo, human
Method: as §1
The connection between gene modifications in the GNAS gene and the change in heart rate was examined after treatment with sibutramine versus placebo (FIG. 25). The effects are illustrated as they depend on the T393C polymorphism. […] FIG. 26 makes clear the possible use of a gene modification in the human GNAS gene to predict the increase in diastolic blood pressure during treatment with sibutramine.
FIG. 27 illustrates once again the possible use of a gene modification in the human GNAS gene to predict an increase in the heart rate during therapy with sibutramine. This illustrates the effects, in dependence on genotypes of the G(-1211)A polymorphism. […] Finally, FIG. 28 illustrates the possibility of an additional use of a gene modification in the human GNAS gene in the prediction of an increase in systolic blood pressure during therapy with sibutramine.

CC(C)NCC(O)c1ccc(O)c(O)c1 (stereo not shown) [isoprenaline]
stimulation of lipolysis (glycerol release) (human fat cells; fat cells from humans with GNAS G(-1211)A GG genotype): most marked stimulation of lipolysis
stimulation of lipolysis (glycerol release) (human fat cells; fat cells from individuals with GNAS 393 TT genotype): most marked stimulation of lipolysis

CN(C)C(=N)N=C(N)N [metformin]
decrease in the BMI ([1]; GNAS T393C CC genotype): 15.8%
improvement of the HOMA-IR index (insulin resistance) ([1]; GNAS T393C CC genotype): 2.9
decrease in the BMI ([1]; GNAS T393C TC genotype): 4.8%
improvement of the HOMA-IR index (insulin resistance) ([1]; GNAS T393C TC genotype): 2.2
decrease in the BMI ([1]; GNAS T393C TT genotype): 1.5%
improvement of the HOMA-IR index (insulin resistance) ([1]; GNAS T393C TT genotype): 0.9

CC(C)CC(N(C)C)C1(c2ccc(Cl)cc2)CCC1 (stereo not shown) [sibutramine]
loss of weight after one year, sibutramine vs placebo ([2]; GNAS G(-1211)A AG and AA genotype): marked (p=0.027) increase in the loss of weight
loss of weight after one year, sibutramine vs placebo ([2]; GNAS G(-1211)A GG genotype): favorable drug effect was not observed
loss of weight after one year, sibutramine vs placebo ([2]; GNAS T393C CC genotype): favorable drug effect was not observed
loss of weight after one year, sibutramine vs placebo ([2]; GNAS T393C TC and TT genotype): clear (p=0.027) increase in the loss of weight
change in diastolic blood pressure during therapy with sibutramine ([3]; GNAS 393 CC and TC genotypes): does not occur
change in diastolic blood pressure during therapy with sibutramine ([3]; GNAS 393 TT genotype): significant increase
change in systolic blood pressure under therapy with sibutramine ([3]; GNAS -1211 GG genotype): lack of reduction of the systolic blood pressure
change in heart rate (sibutramine versus placebo) ([3]; GNAS G(-1211)A GG genotype compared with AA/AG genotypes): significantly greater change in heart rate
increase in heart rate with sibutramine versus placebo ([3]; GNAS T393C CC genotype): This effect does not occur
increase in heart rate with sibutramine versus placebo ([3]; GNAS T393C TC genotype): 10 beats per minute
increase in heart rate with sibutramine versus placebo ([3]; GNAS T393C TT genotype): 20 beats per minute
